Converted amounts (≈) assume the structure as drawn. Where a SMILES comes first, the peptide text is derived from it. [ ]: non-standard residue; d: D form. The star is where a group is joined. Tridecanoyl(3R-OH,11-Me) = CCC(C)CCCCCCC[C@@H](O)CC(=O)*; X1 = CCC(C)CC(C)CCCCC[C@@H](O)CC(=O)*; X2 = CCC(C)CC(C)CCCC[C@@H](O)CC(=O)*; X3 = CCC(C)CCCCCCCC[C@@H](O)CC(=O)*
Columns and labels:
[1] = test system: Aspergillus niger; test: Antimicrobial activity against Aspergillus niger incubated for 72 hrs by standard broth dilution method; type: functional
[2] = test system: Botrytis cinerea; test: Antimicrobial activity against Botrytis cinerea incubated for 72 hrs by standard broth dilution method; type: functional
[3] = test system: Candida albicans; test: Antimicrobial activity against Candida albicans incubated for 72 hrs by standard broth dilution method; type: functional
[4] = test system: Colletotrichum acutatum; test: Antimicrobial activity against Colletotrichum acutatum incubated for 72 hrs by standard broth dilution method; type: functional
[5] = test system: Rhizoctonia solani; test: Antimicrobial activity against Rhizoctonia solani incubated for 72 hrs by standard broth dilution method; type: functional
[6] = test system: Saccharomyces cerevisiae; test: Antimicrobial activity against Saccharomyces cerevisiae incubated for 72 hrs by standard broth dilution method; type: functional
[7] = test system: Candida albicans; test: Antifungal activity against wild type Candida albicans; type: functional, organism-based
[8] = test system: Candida albicans; test: Antifungal activity against Candida albicans; type: functional, organism-based
[9] = test system: Aspergillus niger; test: Antifungal activity against Aspergillus niger; type: functional
[10] = test system: Colletotrichum gloeosporioides; test: Antifungal activity against Colletotrichum gloeosporioides; type: functional
[11] = test system: Gaeumannomyces graminis; test: Antimicrobial activity against Gaeumannomyces graminis; type: functional
[12] = test system: Colletotrichum acutatum; test: Antifungal activity against Colletotrichum acutatum incubated for 48 hrs by standard broth dilution method; type: functional
[13] = test system: Rhizoctonia solani; test: Antifungal activity against Rhizoctonia solani incubated for 48 hrs by standard broth dilution method; type: functional
[14] = test system: Botrytis cinerea; test: Antifungal activity against Botrytis cinerea incubated for 48 hrs by standard broth dilution method; type: functional
[15] = test system: Phytophthora capsici; test: Antifungal activity against Phytophthora capsici incubated for 48 hrs by standard broth dilution method; type: functional
[16] = test system: Rhizoctonia solani; test: Antifungal activity against Rhizoctonia solani; type: functional
[17] = test system: Botrytis cinerea; test: Antifungal activity against Botrytis cinerea; type: functional

SMILES: CO[C@H]1/C=C/C=C/CCC[C@@H](C)OC(=O)/C=C\C=C\C[C@H](O[C@@H]2O[C@@H](CO)[C@@H](O)[C@H](O)[C@H]2O)/C=C/C=C\C[C@H](O)C1
- MIC [1]: 0.02 µg/mL (≈ 0.0346 µM)
- MIC [2]: 0.02 µg/mL (≈ 0.0346 µM)
- MIC [3]: 0.02 µg/mL (≈ 0.0346 µM)
- MIC [4]: 0.02 µg/mL (≈ 0.0346 µM)
- MIC [5]: 0.02 µg/mL (≈ 0.0346 µM)
- MIC [6]: 0.02 µg/mL (≈ 0.0346 µM)

SMILES: C[C@@H]1CCCCC/C=C/[C@H](O)C[C@@H](O)C/C=C\C=C\[C@@H](O[C@@H]2O[C@@H](CO)[C@H](O)[C@@H](O)[C@@H]2O)C/C=C/C=C\C(=O)O1
- MIC [1]: 0.02 µg/mL (≈ 0.0353 µM)
- MIC [2]: 0.02 µg/mL (≈ 0.0353 µM)
- MIC [3]: 0.02 µg/mL (≈ 0.0353 µM)
- MIC [4]: 0.02 µg/mL (≈ 0.0353 µM)
- MIC [5]: 0.02 µg/mL (≈ 0.0353 µM)
- MIC [6]: 0.02 µg/mL (≈ 0.0353 µM)

SMILES: C/C(Cl)=C/C=C/C=C/C=C/C=C/C(O)=C1\C(=O)C(CC(N)=O)N([C@@H]2OC[C@@H](O)[C@H](O)[C@H]2O[C@H]2OC[C@H](O[C@H]3O[C@@H](C)[C@H](O)[C@@H]3O)[C@H](O)[C@H]2O)C1=O (some centres not stated)
- MIC [7]: 1.95 µg/mL (≈ 2.62 µM)

SMILES: CCC/C=C\c1ccccc1/C=C/C(=O)N[C@H]1C(=O)N(C)/C(=C/c2ccc(O)cc2)C(=O)N[C@@H](CC(C)C)C(=O)N[C@H](Cc2ccccc2)C(=O)N[C@@H]([C@H](C)O)C(=O)N[C@@H](CC(N)=O)C(=O)N[C@@H](CO)C(=O)O[C@H](C)[C@@H](NC(=O)C/C=C2/C=CNC[C@H]2/C=C\CCC)C(=O)N(C)/C(=C/c2ccc(O)cc2)C(=O)N[C@@H](CC(C)C)C(=O)N[C@H](Cc2ccccc2)C(=O)N[C@@H]([C@H](C)O)C(=O)N[C@@H](CC(N)=O)C(=O)N[C@@H](CO)C(=O)O[C@@H]1C
- IC50 [8]: 4.14 µg/mL (≈ 1.99 µM)

SMILES: Cc1ccc(CC2CCC(=O)N2)c(C)c1 (configuration not stated)
- MIC [9]: 1 µg/mL (≈ 4.92 µM)

SMILES: C/C=C(\NC(=O)[C@@H](NC(=O)[C@H](O)[C@H](O)[C@H](CCCNC(=N)N)NC(=O)[C@@H](C)NC(=O)[C@H](C)[C@H](O)[C@H](C)CC(C)C)[C@@H](C)[C@@H](C)C(N)=O)C(=O)N[C@@H](C(=O)N[C@H](CCCNC(=N)N)C(=O)N[C@@H](CC(C)C)C(=O)N(C)[C@@H](CCC(N)=O)C(=O)N[C@@H](C(=O)N(C)[C@@H](C)C(=O)O)[C@H](OC)c1ccc(O)cc1)[C@@H](C)O
- MIC [8]: 0.1 µg/mL (≈ 0.0664 µM)

SMILES: CC(C)[C@@H](C)[C@@H]1O[C@@H]1[C@@H](C)[C@H]1[C@@H](O)C[C@]2(O)C3=CC=C4C[C@@H](O)CC[C@]4(C)C3[C@H](O)C(=O)[C@]12C (some centres not stated)
- MIC [8]: 1.56 µg/mL (≈ 3.29 µM)

SMILES: CC1=CC[C@]23C[C@H]1C[C@@](C)(O)[C@H]2[C@H](O)C[C@@H]3C
- MIC [10]: 1 µg/mL (≈ 4.23 µM)

SMILES: CS[C@@]12C[C@@H]3C(=O)CC[C@H](O)[C@@H]3N1C(=O)[C@]1(SC)C[C@H]3C(=O)CC[C@@H](O)[C@@H]3N1C2=O
- MIC [11]: 0.25 µg/mL (≈ 0.55 µM)

SMILES: CC(C)C[C@@H](C)[C@@H](O)[C@@H](C)C(=O)N[C@H](C)C(=O)N[C@@H](CCCNC(=N)N)[C@@H](O)[C@@H](O)C(=O)N[C@H](C(=O)N[C@@H](C(=O)N[C@@H](C(=O)N[C@H](CCCNC(=N)N)C(=O)O)[C@@H](C)O)[C@@H](C)O)[C@@H](C)[C@@H](C)C(N)=O
- MIC [8]: 0.1 µg/mL (≈ 0.101 µM)

SMILES: C[C@@H]1CCC/C=C/C=C/[C@H](O)C[C@@H](O)C/C=C\C=C\[C@@H](O[C@@H]2O[C@@H](CO)[C@H](O)[C@@H](O)[C@@H]2O)C/C=C/C=C\C(=O)O1
- MIC [1]: 0.02 µg/mL (≈ 0.0354 µM)
- MIC [2]: 0.02 µg/mL (≈ 0.0354 µM)
- MIC [3]: 0.02 µg/mL (≈ 0.0354 µM)
- MIC [4]: 0.02 µg/mL (≈ 0.0354 µM)
- MIC [5]: 0.02 µg/mL (≈ 0.0354 µM)
- MIC [6]: 0.02 µg/mL (≈ 0.0354 µM)

SMILES: CC(=O)O[C@@H]1C[C@H](C)[C@@]23CC=C(C)[C@@H](C2)C[C@@](C)(O)[C@@H]13
- MIC [10]: 0.125 µg/mL (≈ 0.449 µM)

SMILES: CCC(C)CC(C)CCCCC[C@@H](O)CC(=O)N[C@@H](CC(C)C)C(=O)N[C@@H](CCC(=O)O)C(=O)N[C@@H](CC(C)C)C(=O)N[C@@H](CC(C)C)C(=O)O (some centres not stated) (X1-LELL-OH)
- MIC [12]: 0.01 µg/mL (≈ 0.0138 µM)
- MIC [13]: 0.01 µg/mL (≈ 0.0138 µM)
- MIC [14]: 0.01 µg/mL (≈ 0.0138 µM)
- MIC [15]: 0.01 µg/mL (≈ 0.0138 µM)

SMILES: CCC(C)CC(C)CCCC[C@@H](O)CC(=O)N[C@@H](CC(C)C)C(=O)N[C@@H](CCC(=O)O)C(=O)N[C@@H](CC(C)C)C(=O)N[C@@H](CC(C)C)C(=O)O (some centres not stated) (X2-LELL-OH)
- MIC [12]: 0.01 µg/mL (≈ 0.014 µM)
- MIC [13]: 0.01 µg/mL (≈ 0.014 µM)
- MIC [14]: 0.01 µg/mL (≈ 0.014 µM)
- MIC [15]: 0.01 µg/mL (≈ 0.014 µM)

SMILES: CCC(C)CCCCCCCC[C@@H](O)CC(=O)N[C@@H](CCC(=O)OC)C(=O)N[C@@H](CC(C)C)C(=O)N[C@@H](CC(C)C)C(=O)N[C@@H](CC(C)C)C(=O)O (some centres not stated) (X3-E(OMe)LLL-OH)
- MIC [12]: 0.01 µg/mL (≈ 0.0135 µM)
- MIC [13]: 0.01 µg/mL (≈ 0.0135 µM)
- MIC [14]: 0.01 µg/mL (≈ 0.0135 µM)
- MIC [15]: 0.01 µg/mL (≈ 0.0135 µM)

SMILES: CCC(C)CCCCCCC[C@@H](O)CC(=O)N[C@@H](CCC(=O)O)C(=O)N[C@@H](CC(C)C)C(=O)N[C@@H](CC(C)C)C(=O)N[C@@H](C(=O)N[C@@H](CC(=O)O)C(=O)N[C@@H](CC(C)C)C(=O)N[C@@H](CC(C)C)C(=O)O)C(C)C (stereo partly drawn) ({Tridecanoyl(3R-OH,11-Me)}-ELL[dV]DLL-OH)
- MIC [16]: 4 µg/mL (≈ 3.84 µM)
- MIC [17]: 4 µg/mL (≈ 3.84 µM)

SMILES: CCC(C)CCCCCCC[C@@H](O)CC(=O)N[C@@H](CC(C)C)C(=O)N[C@@H](CCC(=O)O)C(=O)N[C@@H](CC(C)C)C(=O)N[C@@H](CC(C)C)C(=O)O (stereo partly drawn) ({Tridecanoyl(3R-OH,11-Me)}-LELL-OH)
- MIC [12]: 0.01 µg/mL (≈ 0.014 µM)
- MIC [13]: 0.01 µg/mL (≈ 0.014 µM)
- MIC [14]: 0.01 µg/mL (≈ 0.014 µM)
- MIC [15]: 0.01 µg/mL (≈ 0.014 µM)

SMILES: C[C@@H]1CCC/C=C/C=C/[C@H](O)C[C@@H](O)C[C@@H]2O[C@@H]2/C=C/[C@@H](O)C/C=C/C=C\C(=O)O1 [GAGEOMACROLACTIN 1]
- MIC [1]: 0.02 µg/mL (≈ 0.0478 µM)
- MIC [2]: 0.02 µg/mL (≈ 0.0478 µM)
- MIC [3]: 0.02 µg/mL (≈ 0.0478 µM)
- MIC [4]: 0.02 µg/mL (≈ 0.0478 µM)
- MIC [5]: 0.02 µg/mL (≈ 0.0478 µM)
- MIC [6]: 0.02 µg/mL (≈ 0.0478 µM)

SMILES: C[C@@H]1CCC/C=C/CCC(=O)C[C@@H](O)C/C=C\C=C\[C@@H](O)C/C=C/C=C\C(=O)O1 [MACROLACTIN F]
- MIC [1]: 0.02 µg/mL (≈ 0.0497 µM)
- MIC [2]: 0.02 µg/mL (≈ 0.0497 µM)
- MIC [3]: 0.02 µg/mL (≈ 0.0497 µM)
- MIC [4]: 0.02 µg/mL (≈ 0.0497 µM)
- MIC [5]: 0.02 µg/mL (≈ 0.0497 µM)
- MIC [6]: 0.02 µg/mL (≈ 0.0497 µM)

— ChEMBL document CHEMBL5260795, “Antifungal potential of marine natural products” (Eur J Med Chem, 2017)
